Data as given in patent publication US10449202B2, “Rationale-based design of a targeted therapy for cancer” (priority 2013, dated 2019).

How the values were obtained:
[1] = test system: SRC-3; test: Western blot of SRC-3 protein expression in prostate cancer cell lines; assay type: cell-based; conditions: 1 μM, 6 hours
Excerpt: (§1) Ponceau S was used to stain proteins.

[2] = test system: SRC-3; test: Subcellular fractionation and Western blot of SRC-3 in nucleus and cytoplasm; assay type: cell-based; conditions: 1000 nM, 6 hours
Excerpt: as §1
(§2) Nuclear and cytosolic fractions were obtained and analyzed by western blot. Antibodies used include SRC-3, PRK, tubulin, histone-H3, and actin.

[3] = test system: PRK-1; test: Subcellular fractionation and Western blot of PRK-1 in nucleus and cytoplasm; assay type: cell-based; conditions: 6 hours
Excerpt: as §1, §2

[4] = test system: prostate cancer; conditions: Phase 2 human clinical trial, prostate cancer patients; cited from earlier work
[5] = test system: PKC; conditions: read-out: IC50 PKC; cited from earlier work
[6] = test system: gastric cancer cells; test: MTT cell viability assay, gastric cancer cells; conditions: 10-3000 nM, 48 hours, AGS, MKN-45, Hs746T, NCI-N87
[7] = test system: prostate cancer cells; test: MTT cell viability assay, prostate cancer cells; conditions: 10-3000 nM, 48 hours, PC3, DU145, LNCaP
[8] = test system: PRK1; test: Western blot of PRK1 protein expression in prostate cancer cell lines; conditions: LNCaP, PC3 and DU145 cells (any of the tested cell lines), 1 μM, 6 hours
[9] = test system: DEK; test: Western blot of DEK protein levels in prostate, breast and gastric cancer cells, 24 hours, two doses; conditions: gastric cancer cells (MKN-45 and NCI-N87)
[10] = test system: SRC3; test: Western blot of SRC3 protein levels in prostate, breast and gastric cancer cells, 24 hours, two doses; conditions: for SRC3 protein levels: two doses

## C[C@]12O[C@H](C[C@]1(O)CO)n1c3ccccc3c3c4c(c5c6ccccc6n2c5c31)CNC4=O [lestaurtinib]
[1]; DU145 cells
  SRC-3 protein expression level: not significantly altered
[1]; LNCaP cells
  SRC-3 protein expression level: profound decrease
[1]; PC3 cells
  SRC-3 protein expression level: not significantly altered
[2]; LNCaP cells
  reduction in cytoplasmic SRC-3, LNCaP compared to PC3 or DU145: much more dramatic
[2]; LNCaP, DU145 or PC3 cells
  nuclear SRC-3 protein levels: did not caused a reduction
[2]; all three cell lines (LNCaP, PC3, DU145)
  SRC-3 protein in the cytoplasm: reduced
[3]; LNCaP, PC3, DU145, 1000 nM
  cytoplasmic PRK-1 levels: unaltered
[3]; all three cell lines (LNCaP, PC3, DU145), 1000 nM
  nuclear PRK-1 protein levels: increased
[4]
  primary clinical endpoint of reduced PSA levels: failed to achieve the primary clinical endpoint of reduced PSA levels
[5]
  IC50: 226 nM
[6]
  viability of gastric cancer cells: effective in reducing viability
[7]
  viability of prostate cancer cells: effective in reducing viability
[8]
  PRK1 protein expression level: not significantly altered
[9]
  DEK levels: did not change
[10]; MCF7 breast cancer cells
  SRC3 protein levels: most profound dose-dependent decrease
[10]; MKN-45 gastric cancer cells, higher dose
  SRC3 expression levels: showed a decrease
[10]; ZR75-1 breast cancer cells
  SRC3 protein levels: no obvious change
